Experimental data reported in patent US20120142645A1, “NEUROACTIVE STEROID COMPOSITIONS AND METHODS OF USE FOR LOWERING CHOLESTEROL” (priority 2009, published 2012).
Entries after “also recorded” stand apart in the source; their conditions may differ. Marks after values point to notes of the source that are not given here.

How the values were obtained:
[1] = tested on: patients with schizophrenia or schizoaffective disorder; assay: Side effect profile and tolerability (Hillside AE Form); same trial; format: in vivo, human
Source text: During the screening visit (Visit 1), patients received a physical exam, vital signs, and electrocardiogram (EKG), as well as baseline laboratory measures consisting of serum electrolytes, glucose, creatinine, blood urea nitrogen (chemistry 7 panel), liver function tests, complete blood count (CBC), urinalysis, urine toxicology test, thyroid stimulating hormone (TSH), and prolactin, and serum pregnancy test if female. These tests were also repeated at the completion of the study (Visit 6). In addition, patients received an interim EKG 4 weeks post-randomization, as well as a serum pregnancy test if female (Visit 4). Patients also received a chemistry 7 panel, CBC, and liver function tests at Visits 2, 3, 4, and 5 (i.e., at all study visits). Psychiatric symptoms were assessed at baseline using the Scale for the Assessment of Negative Symptoms (Andreasen, 1983), the Positive and Negative Symptom Scale (PANSS; Kay et al., 1987), the Calgary Depression Rating Scale (CDRS; Addington et al., 1990), the Clinical Global Impressions Improvement (CGI-I) and Severity (CGI-S) scales, the Barnes Akathisia Scale (BAS; Barnes, 1989), the Simpson Angus Scale for Extrapyramidal Symptoms (SAS; Simpson & Angus, 1970), the Quality of Life Scale (QOL; Heinrichs et al., 1984), and the Hillside Side Effects Scale. One research nurse with five years of experience in the conduction of schizophrenia clinical trials completed both psychiatric and cognitive assessments throughout the study, and was trained to one point of divergence on each PANSS item.

[2] = Serum neurosteroid and steroid levels (GC/MS, RIA) at baseline and post-treatment; same trial; conditions: for Serum Androstenedione level / Serum Cortisol level / Serum DHEA level / Serum DHEAS level / Serum PGS (pregnenolone sulfate) level / Serum Total testosterone level / Serum Estradiol level / Serum ALLO (allopregnanolone) level / Serum Free testosterone level / Serum PG (pregnenolone) level / Serum Progesterone level: mean ± SD; for Serum Estradiol level: n = 7; for Serum ALLO (allopregnanolone) level / Serum Free testosterone level / Serum PG (pregnenolone) level / Serum Progesterone level: n = 8; for Serum testosterone, free testosterone, cortisol, DHEA, estradiol, or androstenedione levels: after 8 weeks of pregnenolone vs baseline
Protocol: Study drug was dispensed every 2 weeks at each study visit at fixed escalating doses as follows: Visit 1: Two-week single-blind placebo lead-in phase, one placebo tablet twice each day (all pts), Visit 2: Randomization to PREG 50 mg twice each day (100 mg/day total) or placebo for 2 wks, Visit 3: PREG 150 mg twice each day (300 mg/day total) or placebo for 2 weeks, Visit 4: PREG 250 mg twice each day (500 mg/day total) or placebo for 2 weeks, Visit 5: PREG 250 mg twice each day (500 mg/day total) or placebo continued for 2 weeks. Patients thus received PREG 500 mg per day in divided doses during the last 4 weeks of the study. Patients also received the Hillside Adverse Events Scale at Visits 2-6, and during staggered telephone check-in calls every two weeks, beginning one week into the single-blind placebo lead-in phase.
Neurosteroid Analyses. […] One mL of serum was extracted three times in ethyl acetate prior to high performance liquid chromatography (HPLC) purification utilizing tetrahydrofuran, ethanol, and hexane in the mobile phase. All samples were injected in duplicate. […] All other serum steroid levels were determined utilizing commercially available radioimmunoassay (RIA) kits according to manufacturer directions (progesterone, cortisol, testosterone, free testosterone, and DHEAS: Diagnostic System Laboratories, Webster, Tex.). DHEA serum levels were determined utilizing a kit from ICN Pharmaceuticals (Costa Mesa, Calif.).
Statistical Analysis. Primary endpoints were changes from baseline at Visit 2 following a two-week placebo lead-in period (all patients) to final assessment at Visit 6 in cognitive symptoms (as assessed by BAGS and MATRICS composite scores) and negative symptoms (as assessed by SANS total scores). […] Student's t-tests were conducted on the change scores between treatment groups in this proof-of-concept study (two-tailed alpha p=0.05 for each statistical test).

[3] = change from baseline pre-randomization, n = 9
[4] = change from baseline pre-randomization, n = 9, mild in all subjects
[5] = change from baseline pre-randomization, n = 9, mild in all subjects, listed as pregnenolone
[6] = after 8 weeks of pregnenolone, listed as Pregnenolone
[7] = after 8 weeks of pregnenolone, listed as pregnenolone

## CC(=O)[C@H]1CC[C@H]2[C@@H]3CC=C4C[C@@H](O)CC[C@]4(C)[C@H]3CC[C@]12C [PG, pregnenolone]
[1]; 8-week trial
  Serious adverse event related to study medication: No patients receiving pregnenolone experienced a serious adverse event
[1]; [3]
  Side effect: Akathisia: 0 N (%)
  Side effect: All Other Side Effects: 0 N (%)
  Side effect: Blurred Vision: 0 N (%)
  Side effect: Diarrhea: 0 N (%)
  Side effect: Drowsiness: 0 N (%)
  Side effect: Excitation/Agitation: 0 N (%)
  Side effect: Headache: 0 N (%)
  Side effect: Impaired Sexual Performance: 0 N (%)
  Side effect: Insomnia: 0 N (%)
  Side effect: Joint Pain/Stiffness: 0 N (%)
  Side effect: Malaise: 0 N (%)
  Side effect: Nasal Congestion: 0 N (%)
  Side effect: Peripheral Edema: 0 N (%)
  Side effect: Rigidity: 0 N (%)
  Side effect: Sweating: 0 N (%)
  Side effect: Tremor: 0 N (%)
[1]; change from baseline pre-randomization, n = 9, mild (<145/90)
  Side effect: Hypertension: 1 (11%)^b N (%)
[1]; [4]
  Side effect: Cold Extremities: 1 (11%)^a N (%)
  Side effect: Decreased Interest in Sex: 1 (11%)^a N (%)
  Side effect: Disorientation (to date, address, mayor, or MD name): 2 (22%)^a N (%)
  Side effect: Dry mouth: 1 (11%)^a N (%)
  Side effect: Muscle Pain/Stiffness: 1 (11%)^a N (%)
  Side effect: Restlessness: 2 (22%)^a N (%)
[1]; [5]
  Side effect: Cold Extremities: one report of mild cold extremities; also recorded: one instance of mild cold extremities
  Side effect: Muscle Pain/Stiffness: one report of mild muscle pain/stiffness; also recorded: one instance of mild muscle pain/stiffness
  Side effect: Restlessness: two reports of mild restlessness; also recorded: two instances of mild restlessness
[1]; doses up to 500 mg/day, 8 weeks
  Tolerability: very well-tolerated
[1]; during the course of the study
  Weight gain, blood pressure, or pulse rate changes: did not demonstrate significant weight gain, blood pressure, or pulse rate changes
[2]; Week 0 (baseline)
  Serum Androstenedione level: 2.93 ± 1.30 ng/mL
  Serum Cortisol level: 8.08 ± 2.80 μg/100 ml
  Serum DHEA level: 7.85 ± 5.94 ng/mL
  Serum DHEAS level: 124.72 ± 86.52 μg/100 ml
  Serum PGS (pregnenolone sulfate) level: 33.4 ± 18.3 ng/mL
  Serum Total testosterone level: 302.83 ± 158.53 ng/100 ml
  Serum Estradiol level: 24.64 ± 6.21 pg/mL
  Serum ALLO (allopregnanolone) level: 110.7 ± 78.9 pg/mL
  Serum Free testosterone level: 7.96 ± 1.07 pg/mL
  Serum PG (pregnenolone) level: 499.9 ± 313.6 pg/mL
  Serum Progesterone level: 0.38 ± 0.15 ng/mL
[2]; Week 8
  Serum Androstenedione level: 3.01 ± 4.66 ng/mL
  Serum Cortisol level: 7.96 ± 3.85 μg/100 ml
  Serum DHEA level: 6.33 ± 3.26 ng/mL
  Serum DHEAS level: 144.87 ± 97.30 μg/100 ml
  Serum PGS (pregnenolone sulfate) level: 94.4 ± 14.3 ng/mL
  Serum Total testosterone level: 303.08 ± 156.05 ng/100 ml
  Serum Estradiol level: 25.42 ± 4.73 pg/mL
  Serum ALLO (allopregnanolone) level: 823.1 ± 528.9 pg/mL
  Serum Free testosterone level: 7.31 ± 2.04 pg/mL
  Serum PG (pregnenolone) level: 2096.0 ± 999.4 pg/mL
[2]; Week 8, listed as Pregnenolone
  Serum Progesterone level: 2.17 ± 0.64 ng/mL
[2]; Week 8, listed as pregnenolone
  Serum Progesterone level: 2.17 ng/mL
[2]; after 8 weeks of pregnenolone
  Increase in serum DHEAS levels over baseline: approximately 16%
  Increase in serum PGS levels over baseline: tripled
  Increase in serum progesterone over baseline: over four-fold
[2]; listed as Pregnenolone
  Serum testosterone, free testosterone, cortisol, DHEA, estradiol, or androstenedione levels: did not result in downstream elevations
[2]; listed as pregnenolone
  Serum testosterone, free testosterone, cortisol, DHEA, estradiol, or androstenedione levels: did not increase
[2]; [6]
  Elevation in serum levels of PG over baseline: approximately four-fold elevations
  Increase in serum ALLO over baseline: five-fold elevations
[2]; [7]
  Elevation in serum levels of PG over baseline: approximate four-fold increase
  Increase in serum ALLO over baseline: five-fold
